Measurements as given in patent publication US8119624B2, “Fused phenyl amido heterocyclic compounds” (Pfizer Inc., priority 2006, dated 2012).
pEC50: −log10 of the molar value. Where two headings read alike, the source gives them in different places.

Molecular target: T1, Full-length glucokinase (beta cell isoform) (Homo sapiens, UniProt P35557)
T1 construct: Full-length glucokinase (beta cell isoform) was His-tagged at N-terminus; His tag (N); made in house
T1 sequence (P35557 1-465): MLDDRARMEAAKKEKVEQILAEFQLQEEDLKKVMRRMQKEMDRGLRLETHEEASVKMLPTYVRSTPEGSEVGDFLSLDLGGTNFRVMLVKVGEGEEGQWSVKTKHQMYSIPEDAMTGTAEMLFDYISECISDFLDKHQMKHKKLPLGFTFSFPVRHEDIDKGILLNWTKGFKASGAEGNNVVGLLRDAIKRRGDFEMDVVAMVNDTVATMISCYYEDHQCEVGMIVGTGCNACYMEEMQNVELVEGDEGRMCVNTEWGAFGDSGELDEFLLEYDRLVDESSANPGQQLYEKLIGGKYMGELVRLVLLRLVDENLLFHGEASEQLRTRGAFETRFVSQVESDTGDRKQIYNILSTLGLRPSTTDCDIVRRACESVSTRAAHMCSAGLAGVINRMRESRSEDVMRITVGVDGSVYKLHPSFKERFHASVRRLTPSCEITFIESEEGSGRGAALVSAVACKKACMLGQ
Assay: Glucokinase biochemical assay (PK/LDH-coupled, NADH depletion at 340 nm): % activation, EC50, % max activation
Conditions: 5 mM glucose; for activation at 10 µM: read-out: % Activation at 10 uM; for pEC50: read-out: EC50; for Emax: fitted maximum activation, read-out: % Max Activation
In short: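 N-terminally His-tagged full-length human beta-cell glucokinase, room temperature, 5 mM glucose, 1 mM ATP, PK/LDH-coupled with 0.7 mM NADH, 1% DMSO final. Initial velocity from the 200–900 s slope of A340 decline. % activation = (Va/Vo−1)×100, measured across compound concentrations.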

[1] = 10 uM compound, % Activation=(Va/Vo−1)×100
[2] = compound at 10 uM, 1 mM ATP, room temperature

Row | SMILES | activation at 10 µM [1] [%] | pEC50 (GK activation) | Emax [%] | pEC50 (1 mM ATP, room temperature) | activation at 10 µM [2] [%] | Emax (1 mM ATP) [%]
1 | CC1(C)Cc2c(OCc3ccccc3)cc(C(=O)Nc3ccc(C(=O)O)cn3)cc2O1 [Example 77, 6-[(4-Benzyloxy-2,2-dimethyl-2,3-dihydro-benzofuran-6-carbonyl)-amino]-nicotinic acid] | 64.4 | 6.82 | 66 |  |  | 
2 | Cc1ccc(NC(=O)c2cc(Oc3ccc(C(=O)N(C)C)c(F)c3)c3sccc3c2)nc1 [Example 365, 7-(4-(Dimethylcarbamoyl)-3-fluorophenoxy)-N-(5-methylpyridin-2-yl)benzo[b]thiophene-5-carboxamide] | 4 |  |  |  |  | 
3 | Cc1cc2c(Oc3ccc(S(=O)(=O)N(C)C)c(F)c3)cc(C(=O)Nc3ccn(C)n3)cc2o1 [Example 305, 4-{4-[(Dimethylamino)sulfonyl]-3-fluorophenoxy}-2-methyl-N-(1-methyl-1H-pyrazol-3-yl)-1-benzofuran-6-carboxamide] | 166 | 6.85 | 168 |  |  | 
4 | Cc1ccnc(NC(=O)c2cc(Oc3ccc(S(C)(=O)=O)cc3)c3c(c2)OC(C)(C)C3)c1 [Example 23, 4-(4-Methanesulfonyl-phenoxy)-2,2-dimethyl-2,3-dihydro-benzofuran-6-carboxylic acid(4-methyl-pyridin-2-yl)-amide] | 46.1 | 5.85 | 70 |  |  | 
5 | COCC1Cc2c(Oc3ccc(C(=O)N(C)C)cc3)cc(C(=O)Nc3ccn(C)n3)cc2O1 (stereo not drawn) [Example 211, 4-(4-Dimethylcarbamoyl-phenoxy)-2-methoxymethyl-2,3-dihydro-benzofuran-6-carboxylic acid (1-methyl-1H-pyrazol-3-yl)-amide] | 83.5 | 5.89 | 90 |  |  | 
6 | CN(C)C(=O)c1ccc(Oc2cc(C(=O)Nc3cnccn3)cc3c2CC(C)(C)O3)cc1 [Example 151, 4-(4-Dimethylcarbamoyl-phenoxy)-2,2-dimethyl-2,3-dihydro-benzofuran-6-carboxylic acid pyrazin-2-ylamide] | 98.1 | 6.33 | 97 |  |  | 
7 | CC(Oc1cc(C(=O)Nc2ccn(C)n2)cc2c1CC(C)(C)O2)c1ccccn1 (stereo not drawn) [Example 81, 2,2-Dimethyl-4-(1-pyridin-2-yl-ethoxy)-2,3-dihydro-benzofuran-6-carboxylic acid (1-methyl-1H-pyrazol-3-yl)-amide] | 112 | 5.28 | 148 |  |  | 
8 | Cn1ccc(NC(=O)c2cc(Oc3ccc(C(=O)N4CCCC4)cc3)c3c(c2)OC(C)(C)C3)n1 [Example 48, 2,2-Dimethyl-4-[4-(pyrrolidine-1-carbonyl)-phenoxy]-2,3-dihydro-benzofuran-6-carboxylic acid(1-methyl-1H-pyrazol-3-yl)-amide] | 130 | 6.85 | 114 |  |  | 
9 | CO[C@H]1CCN(C(=O)c2ccc(Oc3cc(C(=O)Nc4ccn(C)n4)cc4c3CC(C)(C)O4)cc2F)C1 [Example 60, 4-[3-Fluoro-4-((S)-3-methoxy-pyrrolidine-1-carbonyl)-phenoxy]-2,2-dimethyl-2,3-dihydro-benzofuran-6-carboxylic acid(1-methyl-1H-pyrazol-3-yl)-amide] | 172 | 6.57 | 167 |  |  | 
10 | CN(CC#N)C(=O)c1ccc(Oc2cc(C(=O)Nc3ccn(C)n3)cc3c2CC(C)(C)O3)cn1 [Example 399, 5-[2,2-Dimethyl-6-(1-methyl-1H-pyrazol-3-ylcarbamoyl)-2,3-dihydro-benzofuran-4-yloxy]-pyridine-2-carboxylic acid cyanomethyl-methyl-amide] |  |  |  | 6.21 | 212 | 231
11 | Cc1ccc(NC(=O)c2cc(Oc3ccc(S(C)(=O)=O)cc3)c3c(c2)C(=O)N(CC(C)C)CC3)nc1 [Example 391, 2-Isobutyl-N-(5-methylpyridin-2-yl)-5-(4-(methylsulfonyl)-phenoxy)-1-oxo-1,2,3,4-tetrahydroisoquinoline-7-carboxamide] |  |  |  | < 5.00 | 45.2 | 
12 | Cn1ccc(NC(=O)c2cc(Oc3ccc(S(C)(=O)=O)cc3)c3ccsc3c2)n1 [Example 356, 4-(4-(Methylsulfonyl)phenoxy)-N-(1-methyl-1H-pyrazol-3-yl)benzo-[b]-thiophene-6-carboxamide] | 77.4 | < 5.00 |  |  |  | 
13 | C[C@@H](CO)COc1cc(C(=O)Nc2ccn(C)n2)cc2c1CC(C)(C)O2 [Example 102, 4-((S)-3-Hydroxy-2-methyl-propoxy)-2,2-dimethyl-2,3-dihydro-benzofuran-6-carboxylic acid (1-methyl-1H-pyrazol-3-yl)-amide] | 92.6 | 5.06 | 137 |  |  | 
14 | CCNC(=O)c1ccc(Oc2cc(C(=O)Nc3ccn(C)n3)cc3c2CC(C)(C)O3)cn1 [Example 168, 5-[2,2-Dimethyl-6-(1-methyl-1H-pyrazol-3-ylcarbamoyl)-2,3-dihydro-benzofuran-4-yloxy]-pyridine-2-carboxylic acid ethylamide] | 172 | 6.70 | 184 |  |  | 
15 | COCC1Cc2c(OC(C)C)cc(C(=O)Nc3ccn(C)n3)cc2O1 (stereo not drawn) [Example 216, 4-Isopropoxy-2-methoxymethyl-2,3-dihydro-benzofuran-6-carboxylic acid (1-methyl-1H-pyrazol-3-yl)-amide] | 13 |  |  |  |  | 
16 | Cn1ccc(NC(=O)c2cc(Oc3ccc(C(=O)N4CCC4)cc3)c3c(c2)OC(C)(C)C3)n1 [Example 35, 4-[4-(Azetidine-1-carbonyl)-phenoxy]-2,2-dimethyl-2,3-dihydro-benzofuran-6-carboxylic acid(1-methyl-1H-pyrazol-3-yl)-amide] | 145 | 6.98 | 145 |  |  | 
17 | Cc1ccc(NC(=O)c2cc(Oc3ccc(C(=O)N(C)C)cc3)c3oc(C)nc3c2)nc1 [Example 370, 7-{4-[(Dimethylamino)carbonyl]phenoxy}-2-methyl-N-(5-methylpyridin-2-yl)-1,3-benzoxazole-5-carboxamide] | 14.9 | 6.77 | 3.5 |  |  | 
18 | Cc1noc(COc2cc(C(=O)Nc3ccn(C)n3)cc3c2CC(C)(C)O3)n1 [Example 94, 2,2-Dimethyl-4-(3-methyl-[1,2,4]oxadiazol-5-ylmethoxy)-2,3-dihydro-benzofuran-6-carboxylic acid (1-methyl-1H-pyrazol-3-yl)-amide] | 116 | 5.36 | 140 |  |  | 
19 | Cn1ccc(NC(=O)c2cc(Oc3ccc(C(=O)NC4CCC4)c(F)c3)c3c(c2)OC(C)(C)C3)n1 [Example 74, 4-(4-Cyclobutylcarbamoyl-3-fluoro-phenoxy)-2,2-dimethyl-2,3-dihydro-benzofuran-6-carboxylic acid(1-methyl-1H-pyrazol-3-yl)-amide] | 285 | 6.27 | 258 |  |  | 
20 | Cn1ccc(NC(=O)c2cc(Oc3ccc(C(=O)N4CCC4)c(F)c3)c3c(c2)OC(C)(CO)C3)n1 (stereo not drawn) [Example 241, 4-[4-(Azetidine-1-carbonyl)-3-fluoro-phenoxy]-2-hydroxymethyl-2-methyl-2,3-dihydro-benzofuran-6-carboxylic acid (1-methyl-1H-pyrazol-3-yl)-amide] | 127 | 7.24 | 135 |  |  | 
21 | CC1Cc2c(cc(Oc3ccc(S(C)(=O)=O)cc3)cc2C(=O)Nc2ccccn2)O1 (stereo not drawn) [Example 1, 6-(4-Methanesulfonyl-phenoxy)-2-methyl-2,3-dihydrobenzofuran-4-carboxylic acid pyridin-2-ylamide] | 101 | 5.06 | 144 |  |  | 
22 | Cn1ccc(NC(=O)c2cc(Oc3ccc(S(C)(=O)=O)cc3)c3c(c2)OC(C(F)F)C3)n1 (stereo not drawn) [Example 225, 2-Difluoromethyl-4-(4-methanesulfonyl-phenoxy)-2,3-dihydro-benzofuran-6-carboxylic acid (1-methyl-1H-pyrazol-3-yl)-amide] | 103 | 5.53 | 242 |  |  | 
23 | CN(C)Cc1ccc(Oc2cc(C(=O)Nc3ccn(C)n3)cc3c2CC(C)(C)O3)c(F)c1 [Example 39, 4-(4-Dimethylaminomethyl-2-fluoro-phenoxy)-2,2-dimethyl-2,3-dihydro-benzofuran-6-carboxylic acid(1-methyl-1H-pyrazol-3-yl)-amide] | 105 | 5.70 | 133 |  |  | 
24 | COCC1Cc2c(Oc3ccc(C(=O)N(C)C)c(F)c3)cc(C(=O)Nc3ccn(C)n3)cc2O1 (stereo not drawn) [Example 205, 4-(4-Dimethylcarbamoyl-3-fluoro-phenoxy)-2-methoxymethyl-2,3-dihydro-benzofuran-6-carboxylic acid (1-methyl-1H-pyrazol-3-yl)-amide] | 90.8 | 6.38 | 94.5 |  |  | 
25 | Cc1ccc(NC(=O)c2cc(Oc3ccc(S(C)(=O)=O)cc3)c3occc3c2)nc1 [Example 333, N-(5-methylpyridin-2-yl)-7-[4-(methylsulfonyl)phenoxy]-1-benzofuran-5-carboxamide] | 52.8 | 5.07 | 106 |  |  | 
